Measurements reported in ChEMBL document CHEMBL2331316, “Highly potent and selective cannabinoid receptor 2 agonists: initial hit optimization of an adamantyl hit series identified from high-through-put screening” (Bioorg Med Chem Lett, 2013).
≈ marks a conversion by molar mass, not a printed value.

What was measured:
[1] = target: T1, Cannabinoid receptor 2 (Homo sapiens, UniProt P34972); test: Agonist activity at human CB2 receptor by cAMP read-out assay; type: functional
[2] = target: T2, Cannabinoid receptor 1 (Homo sapiens, UniProt P21554); test: Agonist activity at human CB1 receptor by cAMP read-out assay; type: functional
T2 sequence (P21554 whole entry): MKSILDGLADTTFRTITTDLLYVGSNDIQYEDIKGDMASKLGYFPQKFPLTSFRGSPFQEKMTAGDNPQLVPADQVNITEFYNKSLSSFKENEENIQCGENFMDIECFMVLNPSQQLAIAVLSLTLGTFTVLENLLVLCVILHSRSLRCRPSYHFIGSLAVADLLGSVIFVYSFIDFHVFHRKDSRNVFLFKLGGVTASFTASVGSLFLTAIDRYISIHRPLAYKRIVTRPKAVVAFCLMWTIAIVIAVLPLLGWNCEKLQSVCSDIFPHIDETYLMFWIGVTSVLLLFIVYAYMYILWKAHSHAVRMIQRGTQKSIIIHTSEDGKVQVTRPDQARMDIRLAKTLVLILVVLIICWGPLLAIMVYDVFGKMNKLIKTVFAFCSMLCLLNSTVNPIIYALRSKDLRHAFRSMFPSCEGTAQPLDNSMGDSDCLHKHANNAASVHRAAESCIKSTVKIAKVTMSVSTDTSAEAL

[3] = target: T1, Cannabinoid receptor 2; test: Agonist activity at human CB2 receptor by beta-arrestin recruitment assay
[4] = target: T1, Cannabinoid receptor 2; test: Binding affinity to CB2 receptor (unknown origin)
[5] = target: T2, Cannabinoid receptor 1; test: Binding affinity to CB1 receptor (unknown origin)
[6] = target: T1, Cannabinoid receptor 2; test: Binding affinity to human CB2 receptor
[7] = target: Cannabinoid receptor 2 (Homo sapiens, UniProt P34972, Q63R); test: Agonist activity at human CB2 receptor Q63R mutant
Cannabinoid receptor 2 (Homo sapiens, UniProt P34972, Q63R), sequence (P34972 whole entry Q63R): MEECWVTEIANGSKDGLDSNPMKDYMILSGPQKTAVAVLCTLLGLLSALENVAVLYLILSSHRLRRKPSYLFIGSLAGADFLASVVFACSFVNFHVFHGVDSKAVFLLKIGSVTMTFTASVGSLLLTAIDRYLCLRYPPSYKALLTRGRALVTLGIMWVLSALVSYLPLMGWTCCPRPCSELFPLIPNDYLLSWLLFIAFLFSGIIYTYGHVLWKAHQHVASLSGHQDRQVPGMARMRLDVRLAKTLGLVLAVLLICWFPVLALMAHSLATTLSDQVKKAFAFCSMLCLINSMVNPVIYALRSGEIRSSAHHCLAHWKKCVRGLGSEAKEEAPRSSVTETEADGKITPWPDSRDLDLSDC

[8] = target: Cannabinoid receptor 1 (Mus musculus, UniProt P47746); test: Agonist activity at mouse CB1 receptor by cAMP read-out assay; type: functional
Cannabinoid receptor 1 (Mus musculus, UniProt P47746), sequence (P47746 whole entry): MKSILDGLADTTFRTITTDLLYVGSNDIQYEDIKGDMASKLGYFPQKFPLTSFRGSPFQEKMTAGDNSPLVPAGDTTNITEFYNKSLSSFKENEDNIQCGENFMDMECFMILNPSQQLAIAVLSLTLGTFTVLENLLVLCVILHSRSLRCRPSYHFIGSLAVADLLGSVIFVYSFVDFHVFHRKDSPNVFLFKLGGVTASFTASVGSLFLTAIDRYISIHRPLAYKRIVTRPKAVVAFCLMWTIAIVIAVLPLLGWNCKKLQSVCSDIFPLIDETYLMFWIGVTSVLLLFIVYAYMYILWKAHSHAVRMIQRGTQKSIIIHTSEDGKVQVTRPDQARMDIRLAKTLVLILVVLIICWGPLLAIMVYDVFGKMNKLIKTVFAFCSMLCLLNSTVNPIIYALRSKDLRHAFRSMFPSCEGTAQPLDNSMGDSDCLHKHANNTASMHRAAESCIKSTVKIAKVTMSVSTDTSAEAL

[9] = Lipophilicity, log D of the compound; type: physicochemical; settings: octanol/water
[10] = Metabolic stability in human microsomes assessed as maximal achievable bioavailability; type: ADME, Microsome; settings: read-out: Stability
[11] = Permeability, Pe of the compound; type: ADME; settings: not told; read-out: permeability
[12] = target: T3, Cannabinoid receptor 2 (Mus musculus, UniProt P47936); test: Binding affinity to mouse CB2 receptor
T3 sequence (P47936 whole entry): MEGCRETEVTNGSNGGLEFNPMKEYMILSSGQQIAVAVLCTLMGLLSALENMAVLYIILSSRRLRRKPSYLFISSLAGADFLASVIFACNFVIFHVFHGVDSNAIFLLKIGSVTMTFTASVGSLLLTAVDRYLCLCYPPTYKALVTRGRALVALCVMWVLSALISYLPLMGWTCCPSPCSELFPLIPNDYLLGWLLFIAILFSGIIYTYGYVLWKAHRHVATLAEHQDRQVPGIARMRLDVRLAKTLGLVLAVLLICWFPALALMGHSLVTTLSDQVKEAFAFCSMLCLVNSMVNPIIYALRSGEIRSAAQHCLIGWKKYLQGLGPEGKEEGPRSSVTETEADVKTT

[13] = target: T3, Cannabinoid receptor 2; test: Agonist activity at mouse CB2 receptor by cAMP read-out assay; type: functional
[14] = Solubility, of the compound by LYSA assay; type: physicochemical
[15] = Permeability, Pe of the compound assessed as drug accumulation; type: ADME; settings: not told; read-out: permeability

T1 sequence (P34972 whole entry): as the sequence (P34972 whole entry Q63R) above, with R63Q counted along it

Row | Compound | EC50 [1] [nM] | EC50 [2] [nM] | EC50 [3] [nM] | Ki [4] [nM] | Ki [5] [nM] | Ki [6] [nM] | EC50 [7] [nM] | EC50 [8] [nM] | logD [9] | Fh [10] [%] | Papp [11] [×10⁻⁶ cm/s] | Ki [12] [nM] | EC50 [13] [nM] | solubility [14] [µg/mL] | Papp [15] [×10⁻⁶ cm/s]
1 | O=C(NC(=S)N1CCCCC1)C12CC3CC(CC(C3)C1)C2 | 1400 | > 10000 | 500 | – | – | – | – | – | – | – | – | – | – | – | –
2 | Cc1csc(NC(=O)C23CC4CC(CC(C4)C2)C3)n1 | 600 | > 10000 | 900 | – | – | – | – | – | – | – | – | – | – | – | –
3 | CCOc1ccc(NC(=O)C23CC4CC(CC(C4)C2)C3)cc1 | 1200 | > 10000 | – | – | – | – | – | – | – | – | – | – | – | – | –
4 | CC(=O)c1ccccc1NC(=O)C12CC3CC(CC(C3)C1)C2 | 100 | > 10000 | – | – | – | – | – | – | – | – | – | – | – | – | –
5 | CCOC(=O)c1ccccc1NC(=O)C12CC3CC(CC(C3)C1)C2 | 15 | > 10000 | 76 | – | – | – | – | – | – | – | – | – | – | – | –
6 | COC(=O)c1cccc(NC(=O)C23CC4CC(CC(C4)C2)C3)c1 | > 10000 | > 10000 | – | – | – | – | – | – | – | – | – | – | – | – | –
7 | O=C(NC12CC3CC(CC(C3)C1)C2)c1nn(CCN2CCOCC2)c2ccccc12 | – | – | – | 0.15 | 6.8 | – | – | – | – | – | – | – | – | – | –
8 | COC1CCN(C(=O)C23CC4CC(CC(C4)C2)C3)c2ccccc21 (stereo not given) | – | > 10000 | 1300 | – | – | 770 | 78 | > 10000 | 3.79 | 12 | 3.3 | 5200 | 23 | 10 (≈ 30.7 µM) | 4.6
9 | CCOC1CCN(C(=O)C23CC4CC(CC(C4)C2)C3)c2ccccc21 (stereo not given) | 1.8 | > 10000 | – | – | – | 990 | – | 5000 | 4.09 | 6 | 0.7 | > 10000 | 28 | 17 (≈ 50.1 µM) | 0.9
10 | COCCOC1CCN(C(=O)C23CC4CC(CC(C4)C2)C3)c2ccccc21 (stereo not given) | 20 | > 10000 | 900 | – | – | 350 | 24 | > 10000 | 3.82 | 5 | 4.4 | 1500 | 20 | 97 (≈ 263 µM) | 5.7
11 | CN1CCN(C(=O)C23CC4CC(CC(C4)C2)C3)c2ccccc21 | 29 | > 10000 | > 10000 | – | – | 500 | 71 | > 10000 | 4.09 | 10 | – | 2800 | 22 | < 1 | –
12 | O=C(N1CCc2ccccc21)C12CC3CC(CC(C3)C1)C2 | – | > 10000 | 220 | – | – | 460 | – | > 10000 | – | 45 | 0.4 | > 10000 | 26 | < 1 | 2
13 | O=C(N1Cc2ccccc2C1)C12CC3CC(CC(C3)C1)C2 | – | > 10000 | 600 | – | – | 500 | – | > 10000 | – | 51 | 0.5 | 900 | 7 | < 1 | 14
14 | O=C(N1CCCCc2ccccc21)C12CC3CC(CC(C3)C1)C2 | > 10000 | – | – | – | – | – | – | – | – | – | – | – | > 10000 | – | –
15 | CC1(C)CN(C(=O)C23CC4CC(CC(C4)C2)C3)c2ccccc21 | 16 | > 10000 | 900 | – | – | 500 | 36 | > 10000 | – | 39 | – | 4900 | 40 | < 1 | –
16 | Cc1cccc2c1CCN2C(=O)C12CC3CC(CC(C3)C1)C2 | 4 | > 10000 | 290 | – | – | 170 | 11 | > 10000 | – | 46 | – | 1300 | 7 | < 1 | –
17 | O=C(N1CCc2cc(F)ccc21)C12CC3CC(CC(C3)C1)C2 | – | > 10000 | 200 | – | – | 200 | – | > 6000 | – | 52 | 2.3 | 2400 | 9 | < 1 | 4.7
18 | O=C(N1CCc2ccc(C(F)(F)F)cc21)C12CC3CC(CC(C3)C1)C2 | 15 | > 10000 | 750 | – | – | 2500 | 49 | > 10000 | – | 36 | – | 2800 | 2.9 | < 1 | –
19 | Cc1cccc2c1N(C(=O)C13CC4CC(CC(C4)C1)C3)CC2 | 55 | > 10000 | 1600 | – | – | 600 | 81 | > 10000 | – | 51 | – | > 10000 | 50 | < 1 | –
20 | O=C(NC12CC3CC(CC(C3)C1)C2)N1Cc2ccccc2C1 | – | > 10000 | 700 | – | – | 270 | 27 | > 10000 | 4.26 | 37 | 12 | 400 | 19 | < 1 | 26
21 | O=C(N1CCc2ccccc21)C12CC3CC(CC1C3)C2 | 22 | > 10000 | 900 | – | – | 500 | – | > 10000 | 3.7 | 55 | 1.9 | > 10000 | 51 | < 1 | 0.5
22 | O=C(C1C2CC3CC(C2)CC1C3)N1CCc2ccccc21 (stereo not given) | 7 | > 10000 | 160 | – | – | 320 | 11 | > 10000 | – | 37 | 0.1 | 2200 | 20 | < 1 | 5
23 | O=C(N1CCc2ccccc21)C12CC3CC(CC(O)(C3)C1)C2 | – | > 10000 | 2600 | – | – | – | 531 | – | 2.77 | 90 | 10.3 | – | 1000 | > 318 | 25
24 | O=C(N1CCCc2ccccc21)C12CC3CC(CC(C3)C1)C2 | – | > 10000 | > 10000 | – | – | 790 | 55 | > 10000 | – | 23 | – | 4300 | 126 | < 1 | –
